{"source": "patent US7238512B2", "about": "“Method to produce para-hydroxybenzoic acid in the stem tissue of green plants by using a tissue-specific promoter” (E. I. du Pont de Nemours and Company, priority 2003, dated 2007)", "molecules": {"B1": {"name": "Caulobacter crescentus HCHL (4-hydroxycinnamoyl-CoA hydratase/lyase), SEQ ID NO:61 (Caulobacter vibrioides CB15) (protein)", "chain": "MTDANDTATYRVENRIAWVKFNRPDKRNCMSPTLNRRMMEVLDELEFRDDVGVLVLTGEGSAWSAGMDLKEYFRETEAKGLGATRQAQRESYGWWRRLRWYQKPTIAMVNGWCFGGGYGPLYSCDLAIAADEAQFALSEINWGILPGGGATKVVVDLMPLRDAMYHAMTGELIDGRKAAAWRLVNESVPLERLEARVRELAEVLLKKNPVALKATKDAVRRVKEMNYDNAEDYLVRAQEAANSFDNDGRKEGIKQFIDDKTYKPGLGAYDLAKQS"}}, "key": {"Arabidopsis plants [1]": {"system": "Arabidopsis plants", "assay": "pHBA analysis in tissue of transgenic plants by acid hydrolysis and HPLC", "type": "in vivo, Arabidopsis thaliana", "details": "for Whole stalk pHBA highest: best primary transformant; for Whole stalk pHBA highest / Basal stalk pHBA average / Basal stalk pHBA highest: Table 5; for Basal stalk pHBA average / Basal stalk pHBA highest: primary transformants, eight weeks; for Basal stalk pHBA average: 2 cm stem segment at base; for pHBA levels relative to the best 35S HCHL line: whole stalk tissue, best lines", "description": "If not stated otherwise, plants were grown under standard conditions ([…], 12 h darkness) in a greenhouse. Plants expressing HCHL genes where grown at 100 μE m^−2 sec^−1, 14 h light (23° C.), 12 h (18° C.) darkness and 70% relative humidity in growth chambers (Conviron, USA). Sterile plant cultures were maintained under identical conditions in a plant growth chamber (Percival, USA).\nArabidopsis thaliana plants were transformed using Agrobacterium strains (C58, C1 GV3101 MP90) (Koncz, C. and Schell, J., Mol. Gen. Genet., 204:383-396 (1986)) and published protocols of the in-planta transformation method (Desfeux et al., Plant Physiology, 123(3):895-904 (2000)). Selection for transformants carrying the NPTII gene was conducted on sterile growth media in the presence of 50 mg/L kanamycin. Selection for transformants carrying the BAR gene was conducted on sterile growth media in the presence of 7.5 mg/L glufosinate or by germinating seed in soil followed by spray-application of an aqueous solution (6 mg/L) of glufosinate herbicide (Sigma, USA) 7 days after germination. Plants destined for plant transformation experiments were grown under permanent light at 23° C. to accelerate flower development.\npHBA was quantitated in plant tissue by HPLC analysis. For determination of pHBA conjugates, fresh oven-dried or lyophilized tissue was extracted with 50% MeOH. To quantitate free pHBA plant samples (fresh, dried, lyophilized plant tissue or dried-down methanol extracts of plant tissue) were subjected to acid hydrolysis. Dried or lyophilized tissue was ground to a fine powder using a Cyclotec 1093 tissue mill (Foss Tecator, Sweden) prior to hydrolysis. Tissue (5-25 mg of dried or lyophilized material, 10-100 mg of fresh tissue) was supplemented with 500-750 μL of 1M HCl and incubated at 100° C. for 1-3 h. The hydrolysate was adjusted to alkaline pH by addition of one volume of 1.1 M NaOH."}, "[2]": {"system": "Pseudomonas putida (DSM 12585) HCHL (4-hydroxycinnamoyl-CoA hydratase/lyase), variant with C-terminal hexa-histidine tag, SEQ ID NO:10", "assay": "Kinetic properties of the purified his-tagged HCHL enzyme from Pseudomonas putida (DSM 12585); HPLC quantitation of pHBALD / vanillin", "details": "for Km / Vmax: his-tagged enzyme, 5.5 min; for Km: 100 mM Tris/HCl pH 8.5, 30° C., pHCACoA 343 to 2.7 μM, feruloylCoA 293 to 2.3 μM; for Vmax: pH 8.5, 30° C.", "method": "A second expression construct was generated that expresses a variant of the HCHL protein that carries a C-terminal hexa-histidine tag.\nLB medium (200 mL containing 50 mg/L kanamycin) was inoculated with a single colony of E. coli BL21 DE3 cells harboring the pET29a HCHL 6×His Tag expression construct. Cells were grown to an ODλ=600 nm of 0.6 and protein production was induced by addition of 0.2 mM IPTG. Cells were grown at room temperature for 24 h. Cells were harvested by centrifugation (5000×g for 10 min) and resuspended in 2.5 mL of 100 mM Tris/HCl (pH 8.5), 20 mM DTT, and 300 mM NaCl. The cell suspension was passed twice through a French press and cleared by centrifugation (30000×g, 20 min, at 4° C.). The cell-free extract was buffer-exchanged using PD10 columns into 20 mM NaPO4 (pH 7.5), 500 mM NaCl, and 10 mM imidazole and loaded on a 5 mL HiTrap chelating chromatography cartridge (Amersham Pharmacia, USA). The column was washed with 20 mL of loading buffer and 20 mL of loading buffer containing 70 mM imidazole. The his-tagged HCHL protein was eluted from the column with a linear gradient from 70-1000 mM imidazole in loading buffer."}, "[3]": {"system": "Pseudomonas fluorescens AN103 HCHL (4-hydroxycinnamoyl-CoA hydratase/lyase)", "details": "published, Mitra et al., Arch. Biochem. Biophys., 365(1):6-10 (1999); cited from earlier work"}, "[4]": {"system": "Pseudomonas putida (DSM 12585) HCHL (4-hydroxycinnamoyl-CoA hydratase/lyase), native, SEQ ID NO:6", "method": "LB medium (500 mL containing 50 mg/L) kanamycin was inoculated with a single colony of E. coli BL21 DE3 cells harboring the pET HCHL expression construct. Cells were grown to an ODλ=600 nm of 0.6 and protein production was induced by the adding of 0.2 mM IPTG. Cells were grown at room temperature for 24 h. Cells were harvested by centrifugation (5000×g for 10 min) and resuspended in 15 mL of 100 mM Tris/HCl (pH 8.5), 20 mM DTT, and 300 mM NaCl. […] Two 2.5-mL aliquots of the cell-free extract were buffer-exchanged using PD10 columns into 50 mM Tris/HCl (pH 7.6), 10 mM Na2SO3, and 1 mM EDTA. Buffer-exchanged extract (7 mL) was loaded onto a Q-sepharose column (15 mL gel bed volume). […] A fraction with HCHL activity was purified further by chromatography on hydroxyapatide (Biorad Econo-Pac cartridge CHT-II, 1 mL gel bed volume (Biorad, Calif., USA)). Approximately 2.5 mL was buffer-exchanged into (10 mM NaPO4, (pH 6.8) and 10 μM CaCl2)."}, "[5]": {"molecular_target": "T1, Caulobacter crescentus HCHL (4-hydroxycinnamoyl-CoA hydratase/lyase), SEQ ID NO:61 (Caulobacter vibrioides, UniProt Q9A5P6)", "T1 sequence (Q9A5P6 1-275)": "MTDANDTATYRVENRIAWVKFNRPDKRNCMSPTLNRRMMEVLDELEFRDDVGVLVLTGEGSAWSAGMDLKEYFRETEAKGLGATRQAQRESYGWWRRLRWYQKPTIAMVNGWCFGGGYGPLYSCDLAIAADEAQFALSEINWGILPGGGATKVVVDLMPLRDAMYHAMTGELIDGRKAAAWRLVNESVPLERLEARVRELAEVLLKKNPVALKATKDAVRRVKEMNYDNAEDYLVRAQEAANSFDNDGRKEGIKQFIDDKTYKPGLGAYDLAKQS", "details": "Table 12; 0.8 ng enzyme, pHCACoA 0.9 to 440 μM"}, "Arabidopsis plants [6]": {"system": "Arabidopsis plants", "details": "in vivo"}, "[7]": {"assay": "HCHL enzyme activity in leaf and stalk tissue of transgenic plants", "details": "leaf, T2 lines, eight weeks, Table 6", "quoted_text": "For this experiment the basal stem segment was used.\nThe primary transformants were self crossed and T2 seed material was germinated on selective media containing glufosinate, transferred to soil, and grown for eight weeks. Leaf and stalk tissue was harvested and subjected to pHBA analysis and assayed for HCHL activity (Table 6).\nT2 plants of the Caulobacter and Pseudomonas fluorescens HCHL transgenics were germinated on selective media and grown in soil for 6 weeks to obtain sufficient stalk tissue for analysis of HCHL enzyme activity."}, "[8]": {"assay": "HCHL enzyme assay, kinetic properties of purified recombinant HCHL with pHCACoA", "type": "biochemical", "details": "compared to the Pseudomonas fluorescens AN103 enzyme", "from_the_text": "The reaction mixture was cleared by centrifugation."}, "[9]": {"substrate": "CC(C)(COP(=O)(O)OP(=O)(O)OC[C@H]1O[C@@H](n2cnc3c(N)ncnc32)[C@H](O)[C@@H]1OP(=O)(O)O)[C@@H](O)C(=O)NCCC(=O)NCCSC(=O)/C=C/c1ccc(O)cc1", "assay": "purified protein, by the assay type", "details": "other: Table 12, 0.8 ng enzyme, pHCACoA 0.9 to 440 μM, pH 8.5, 30° C."}, "[10]": {"details": "native enzyme, Example 1, pH 8.5, 30° C."}}, "note": "Where two headings read alike, the source gives them in different places.", "data": [{"molecule": "4CL1 HCHL: Arabidopsis 4CL1 promoter fused to P. putida HCHL coding sequence, SEQ ID NO:28", "values": [{"measurement": "Whole stalk pHBA highest", "setting": "Arabidopsis plants [1]", "result": "12.93 (line 183) mg/g DW"}, {"measurement": "Basal stalk pHBA average", "setting": "Arabidopsis plants [1]", "result": 0.55, "unit": "mg/g FW"}, {"measurement": "Basal stalk pHBA highest", "setting": "Arabidopsis plants [1]", "result": 3.87, "unit": "mg/g FW"}, {"measurement": "pHBA levels relative to the best 35S HCHL line", "setting": "Arabidopsis plants [1]", "result": 60, "unit": "%"}]}, {"molecule": "COc1cc(/C=C/C(=O)SCCNC(=O)CCNC(=O)[C@H](O)C(C)(C)COP(=O)(O)OP(=O)(O)OC[C@H]2O[C@@H](n3cnc4c(N)ncnc43)[C@H](O)[C@@H]2OP(=O)(O)O)ccc1O", "note": "[feruloylCoA]", "values": [{"measurement": "Km", "setting": "[2]", "result": 2.39, "unit": "µM"}, {"measurement": "Vmax", "setting": "[2]", "result": 37.3, "unit": "nkat/mg"}, {"measurement": "Km", "setting": "[3]", "result": 2.4, "unit": "µM"}, {"measurement": "Vmax", "setting": "[3]", "result": 36.5, "unit": "nkat/mg"}]}, {"molecule": "CC(C)(COP(=O)(O)OP(=O)(O)OC[C@H]1O[C@@H](n2cnc3c(N)ncnc32)[C@H](O)[C@@H]1OP(=O)(O)O)[C@@H](O)C(=O)NCCC(=O)NCCSC(=O)/C=C/c1ccc(O)cc1", "note": "[pHCACoA, para-coumaroyl-CoA]", "values": [{"measurement": "Vmax", "setting": "[4]; Table 12, 1.4 ng enzyme, pHCACoA 0.9 to 440 μM", "result": 43, "unit": "nkat mg^−1"}, {"measurement": "Km", "setting": "[4]; Table 12, 1.4 ng enzyme, pHCACoA 0.9 to 440 μM, pH 8.5, 30° C.", "result": 2.4, "unit": "µM"}, {"measurement": "catalytic center activity (per enzyme dimer)", "setting": "[4]; from Vmax with pHCACoA, using 30,865.1 Da per monomer", "result": 2.65, "unit": "s⁻¹"}, {"measurement": "Km", "setting": "[4]; [10]", "result": 2.4, "unit": "µM"}, {"measurement": "Vmax", "setting": "[4]; [10]", "result": 43, "unit": "nkat/mg"}, {"measurement": "Vmax", "setting": "[5]", "result": 240, "unit": "nkat mg^−1"}, {"measurement": "catalytic center activity (per enzyme dimer)", "setting": "[2]; from Vmax with pHCACoA, using 32,348.8 Da per monomer", "result": 3.4, "unit": "s⁻¹"}, {"measurement": "Km", "setting": "[2]", "result": 2.53, "unit": "µM"}, {"measurement": "Vmax", "setting": "[2]", "result": 53.8, "unit": "nkat/mg"}, {"measurement": "Km", "setting": "[3]", "result": 5.3, "unit": "µM"}, {"measurement": "Vmax", "setting": "[3]", "result": 73, "unit": "nkat/mg"}]}, {"molecule": "AtCesA7 (IRX3) HCHL: Arabidopsis AtCesA7 (IRX3) promoter fused to P. putida HCHL coding sequence, SEQ ID NO:30", "values": [{"measurement": "plant phenotype", "setting": "Arabidopsis plants [6]", "result": "phenotypically indistinguishable from wild type plants"}, {"measurement": "HCHL activity", "setting": "[7]", "result": "no detectable HCHL activity"}, {"measurement": "Whole stalk pHBA highest", "setting": "Arabidopsis plants [1]", "result": "12.96 (line 366) mg/g DW"}, {"measurement": "Basal stalk pHBA average", "setting": "Arabidopsis plants [1]", "result": 1.21, "unit": "mg/g FW"}, {"measurement": "Basal stalk pHBA highest", "setting": "Arabidopsis plants [1]", "result": 3.91, "unit": "mg/g FW"}, {"measurement": "pHBA levels relative to the best 35S HCHL line", "setting": "Arabidopsis plants [1]", "result": 60, "unit": "%"}]}, {"molecule": "C3′H HCHL: Arabidopsis C3′H promoter fused to P. putida HCHL coding sequence, SEQ ID NO:29", "values": [{"measurement": "Whole stalk pHBA highest", "setting": "Arabidopsis plants [1]", "result": "9.52 (line 227) mg/g DW"}, {"measurement": "Basal stalk pHBA average", "setting": "Arabidopsis plants [1]", "result": 0.41, "unit": "mg/g FW"}, {"measurement": "Basal stalk pHBA highest", "setting": "Arabidopsis plants [1]", "result": 1.65, "unit": "mg/g FW"}]}, {"molecule": "C4H HCHL: Arabidopsis C4H promoter fused to P. putida HCHL coding sequence, SEQ ID NO:27", "values": [{"measurement": "Whole stalk pHBA highest", "setting": "Arabidopsis plants [1]", "result": "23.42 (line 35) mg/g DW"}, {"measurement": "Basal stalk pHBA average", "setting": "Arabidopsis plants [1]", "result": 0.89, "unit": "mg/g FW"}, {"measurement": "Basal stalk pHBA highest", "setting": "Arabidopsis plants [1]", "result": 5.54, "unit": "mg/g FW"}, {"measurement": "pHBA levels relative to the best 35S HCHL line", "setting": "Arabidopsis plants [1]", "result": 106, "unit": "%"}]}, {"molecule": "B1", "values": [{"measurement": "improvement of catalytic efficiency (Kcat/Km)", "setting": "[8]", "result": 50, "unit": "%"}, {"measurement": "Km", "setting": "[9]", "result": 4, "unit": "µM"}]}]}
